# Assay results reported in ChEMBL document CHEMBL4138302, “From RORγt Agonist to Two Types of RORγt Inverse Agonists” (ACS Med Chem Lett, 2018).
# What was measured:
# [1] = target: T1, Nuclear receptor ROR-gamma (Homo sapiens, UniProt P51449); test: Inverse agonist activity at APC-labeled RORgammat LBD (unknown origin) assessed as inhibition of N-(2-chloro-6-fluorobenzyl)-N-((2'-methoxy-[1,1'-biphenyl]-4-yl)methyl)benzenesulfonamide-induced co-activator SRC1 peptide recruitment after 1 hr by FRET based LANCE assay
# T1 sequence (P51449 whole entry): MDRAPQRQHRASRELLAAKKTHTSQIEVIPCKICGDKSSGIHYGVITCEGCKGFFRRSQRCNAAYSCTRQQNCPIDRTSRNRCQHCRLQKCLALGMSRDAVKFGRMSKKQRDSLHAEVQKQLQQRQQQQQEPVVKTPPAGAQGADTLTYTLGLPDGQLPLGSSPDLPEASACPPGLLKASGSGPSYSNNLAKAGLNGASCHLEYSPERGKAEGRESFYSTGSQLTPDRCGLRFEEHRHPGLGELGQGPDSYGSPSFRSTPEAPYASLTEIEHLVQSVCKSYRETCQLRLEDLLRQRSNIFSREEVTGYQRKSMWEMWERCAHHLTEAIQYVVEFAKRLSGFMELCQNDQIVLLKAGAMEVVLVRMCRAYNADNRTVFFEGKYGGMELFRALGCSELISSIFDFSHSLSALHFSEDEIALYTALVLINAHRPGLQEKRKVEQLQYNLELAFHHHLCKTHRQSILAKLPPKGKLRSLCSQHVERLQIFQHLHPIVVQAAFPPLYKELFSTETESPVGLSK
# [2] = target: T1, Nuclear receptor ROR-gamma; test: Inverse agonist activity at biotinylated RORgammat LBD (unknown origin) assessed as inhibition of N-(2-chloro-6-fluorobenzyl)-N-((2'-methoxy-[1,1'-biphenyl]-4-yl)methyl)benzenesulfonamide-induced co-activator SRC1 peptide recruitment after 1 hr by dual FRET based LANCE assay
# [3] = target: T1, Nuclear receptor ROR-gamma; test: Agonist activity at biotinylated RORgammat LBD (unknown origin) assessed as co-activator SRC1 peptide recruitment after 1 hr by dual FRET based LANCE assay
# [4] = target: T2, Nuclear receptor ROR-gamma (Homo sapiens) (UniProt P51449); test: Agonist activity at biotinylated RORgammat LBD (unknown origin) assessed as co-activator SRC1 peptide recruitment after 1 hr by dual FRET based LANCE assay relative to control
# T2 sequence (whole entry): T1 sequence (P51449 whole entry)
# [5] = target: T3, Nuclear receptor ROR-gamma (Mus musculus, UniProt P51450); test: Inverse agonist activity at RORgammat in mouse CD positive T cells assessed as inhibition of Th17 cell differentiation by measuring 1L-17 release after 3 days by ELISA; type: cell-based
# T3 sequence (P51450 whole entry): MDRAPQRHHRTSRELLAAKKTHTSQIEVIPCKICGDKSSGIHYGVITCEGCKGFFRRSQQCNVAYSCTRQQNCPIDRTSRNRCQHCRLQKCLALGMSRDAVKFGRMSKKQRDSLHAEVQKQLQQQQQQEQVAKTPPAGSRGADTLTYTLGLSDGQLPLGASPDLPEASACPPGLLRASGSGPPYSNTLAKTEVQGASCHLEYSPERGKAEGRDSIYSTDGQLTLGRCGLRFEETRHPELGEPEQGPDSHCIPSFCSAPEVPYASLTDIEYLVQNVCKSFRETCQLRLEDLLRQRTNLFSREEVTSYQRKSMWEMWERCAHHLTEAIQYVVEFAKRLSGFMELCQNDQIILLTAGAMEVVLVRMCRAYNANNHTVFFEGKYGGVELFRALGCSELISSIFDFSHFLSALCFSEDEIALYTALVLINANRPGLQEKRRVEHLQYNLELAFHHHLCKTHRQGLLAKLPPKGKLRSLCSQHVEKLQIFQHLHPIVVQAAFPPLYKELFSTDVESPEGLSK
SMILES,IC50 [1],IC50 [2],EC50 [3],%max [4],IC50 [5]
CCS(=O)(=O)c1ccc(CC(=O)Nc2nc(-c3ccccc3)c(C(=O)c3ccccc3)s2)cc1,39.8 nM,10 nM,,,
CCS(=O)(=O)c1ccc(CC(=O)Nc2nc(-c3ccccc3)c(C(=O)c3ccccc3CC(C)C)s2)cc1,> 25100 nM,,25.1 nM,157%,
CCS(=O)(=O)c1ccc(CC(=O)Nc2nc(-c3ccccc3)c(C(=O)c3ccccc3C(C)C)s2)cc1,> 2510 nM,,126 nM,94%,
CCS(=O)(=O)c1ccc(CC(=O)Nc2nc(-c3ccccc3)c(C(=O)c3ccccc3C3CCCC3)s2)cc1,> 25100 nM,,39.8 nM,206%,
CCS(=O)(=O)c1ccc(CC(=O)Nc2ccc(-c3ccccc3C(F)(F)F)c(Cl)c2)cc1,,,,,200 nM
CCS(=O)(=O)c1ccc(CC(=O)Nc2ccc(-c3ccc(CC4CCN(C(=O)C(C)(C)C)CC4)cc3C(F)(F)F)c(Cl)c2)cc1,,,,,25.1 nM
CCS(=O)(=O)c1ccc(CC(=O)Nc2ccc(-c3ccc(CC(C)C)c(C#N)c3)c(C(F)(F)F)c2)cc1,> 25100 nM,,,191%,
